Measurements taken from patent US4794125A, “Compounds having an immunizing activity” (CL Pharma AG, priority 1984, dated 1988).

Test system: delayed-type hypersensitivity
Experiment: DTH test (delayed-type hypersensitivity in mice), topical sensitization with oxazolone
Assay type: in vivo
Settings: dose 1.0 mg/kg; OF-1 mice; topical sensitization with ethanol oxazolone solution
Experimental: The compounds prepared in accordance with the invention were investigated using the DTH test (delayed-type hypersensitivity in mice) according to Dietrich, F. M. & Hess, R.: Hypersensitivity in mice.
The new compounds (2,6-bis-MAA=2,6-bis-/(methylamino)-acetylamino/-anthraquinone), CS-A=cyclosporin A, were tested in vivo in OF-1 mice by topical sensitization with antigen (ethanol oxazolone solution). The decrease in the inflammatory response versus untreated animals is expressed as % inhibition.

CNCC(=O)Nc1ccc2c(c1)C(=O)c1ccc(NC(=O)CNC)cc1C2=O [2,6-bis-MAA, 2,6-bis-(methylamino)-acetylamino-anthraquinone]
% Inhibition (decrease in the inflammatory response versus untreated animals): 35%
